Measured values published in USRE30456E, “2-Substituted phenyl-s-triazolo[5,1-a] isoquinoline compounds” (Gruppo Lepetit S.p.A., priority 1973, dated 1980).

Tested on: carrageenin induced edema
Test: carrageenin test in rats (anti-inflammatory activity)
Type: in vivo
Source text: The anti-inflammatory activity of some inventive compounds was evidenced by means of the carrageenin test in rats.

Compound | inhibition of the carrageenin induced edema (100 mg./kg. p.o.) | inhibition of the carrageenin induced edema (50 mg./kg. p.o.)
NC(=O)Nc1nc2n(n1)CCc1ccccc1-2 [Example 54, 2-Ureido-5,6-dihydro-s-triazolo[5,1-a]isoquinoline] | about 35% | 
Sc1nc2n(n1)CCc1ccccc1-2 [Example 38, 2-Sulfhydryl-5,6-dihydro-s-triazolo[5,1-a]isoquinoline] |  | about 35%
